Test results as given in ChEMBL document CHEMBL4507262, “Data for DCP probe A-1596586” (2021).

How the values were obtained:
[1] = target: Angiotensin-converting enzyme (Homo sapiens) (UniProt P12821); experiment: ACE (h) Eurofins-Cerep enzyme and uptake assay; conditions: Compound concentration 10.0 uM
[2] = target: Melatonin receptor type 1B (Homo sapiens) (UniProt P49286); experiment: MT2 (ML1B) (h) Eurofins-Cerep binding assay; parameters: ligand concentration 0.05 nM; conditions: filed as agonist, Compound concentration 10.0 uM
[3] = target: Activin receptor type-2B (Homo sapiens) (UniProt Q13705); conditions: Compound concentration 1000.0 nM
[4] = target: RAC-beta serine/threonine-protein kinase (Homo sapiens) (UniProt P31751); conditions: Compound concentration 1000.0 nM
[5] = target: Calcium/calmodulin-dependent protein kinase kinase 2 (Homo sapiens) (UniProt Q96RR4); conditions: Compound concentration 1000.0 nM
[6] = target: Serine/threonine-protein kinase DCLK1 (Homo sapiens) (UniProt O15075); conditions: Compound concentration 1000.0 nM
[7] = target: Mitogen-activated protein kinase kinase kinase 12 (Homo sapiens) (UniProt Q12852); conditions: Compound concentration 1000.0 nM
[8] = test system: Epidermal growth factor receptor (Homo sapiens), P00533 [UNDEFINED MUTATION]; conditions: Compound concentration 1000.0 nM
[9] = test system: Epidermal growth factor receptor (Homo sapiens), P00533 [L858R]; conditions: Compound concentration 1000.0 nM
[10] = target: Mitogen-activated protein kinase 4 (Homo sapiens) (UniProt P31152); conditions: Compound concentration 1000.0 nM
[11] = test system: Fibroblast growth factor receptor 3 (Homo sapiens), P22607 [G697C]; conditions: Compound concentration 1000.0 nM
[12] = target: Tyrosine-protein kinase JAK1 (Homo sapiens) (UniProt P23458); conditions: Compound concentration 1000.0 nM
[13] = test system: Mast/stem cell growth factor receptor Kit (Homo sapiens), P10721 [A829P]; conditions: Compound concentration 1000.0 nM
[14] = target: Mast/stem cell growth factor receptor Kit (Homo sapiens) (UniProt P10721); conditions: Compound concentration 1000.0 nM
[15] = target: Hepatocyte growth factor receptor (Homo sapiens) (UniProt P08581); conditions: Compound concentration 1000.0 nM
[16] = target: Serine/threonine-protein kinase Nek11 (Homo sapiens) (UniProt Q8NG66); conditions: Compound concentration 1000.0 nM
[17] = target: Serine/threonine-protein kinase Nek9 (Homo sapiens) (UniProt Q8TD19); conditions: Compound concentration 1000.0 nM
[18] = target: Mitogen-activated protein kinase 14 (Homo sapiens) (UniProt Q16539); conditions: Compound concentration 1000.0 nM
[19] = target: Serine/threonine-protein kinase PAK 5 (Homo sapiens) (UniProt Q9P286); conditions: Compound concentration 1000.0 nM
[20] = target: Phosphatidylinositol 3-kinase C2 domain-containing subunit gamma (Homo sapiens) (UniProt O75747); conditions: Compound concentration 1000.0 nM
[21] = target: Phosphatidylinositol 4-phosphate 5-kinase type-1 gamma (Homo sapiens) (UniProt O60331); conditions: Compound concentration 1000.0 nM
[22] = target: Membrane-associated tyrosine- and threonine-specific cdc2-inhibitory kinase (Homo sapiens) (UniProt Q99640); conditions: Compound concentration 1000.0 nM
[23] = target: Serine/threonine-protein kinase PLK3 (Homo sapiens) (UniProt Q9H4B4); conditions: Compound concentration 1000.0 nM
[24] = target: Dual serine/threonine and tyrosine protein kinase (Homo sapiens) (UniProt Q6XUX3); conditions: Compound concentration 1000.0 nM
[25] = target: Ribosomal protein S6 kinase alpha-5 (Homo sapiens) (UniProt O75582); conditions: Compound concentration 1000.0 nM
[26] = target: Ribosomal protein S6 kinase alpha-5 (Homo sapiens) (UniProt O75582); conditions: Compound concentration 1000.0 nM; remark: listed apart in the source
[27] = target: TGF-beta receptor type-2 (Homo sapiens) (UniProt P37173); conditions: Compound concentration 1000.0 nM
[28] = target: Serine/threonine-protein kinase tousled-like 1 (Homo sapiens) (UniProt Q9UKI8); conditions: Compound concentration 1000.0 nM
[29] = target: Serine/threonine-protein kinase tousled-like 2 (Homo sapiens) (UniProt Q86UE8); conditions: Compound concentration 1000.0 nM
[30] = target: Non-receptor tyrosine-protein kinase TNK1 (Homo sapiens) (UniProt Q13470); conditions: Compound concentration 1000.0 nM
[31] = target: Transient receptor potential cation channel subfamily M member 6 (Homo sapiens) (UniProt Q9BX84); conditions: Compound concentration 1000.0 nM
[32] = target: 5-hydroxytryptamine receptor 2B (Homo sapiens) (UniProt P41595); conditions: Compound concentration 10.0 uM
[33] = target: Histamine H4 receptor (Homo sapiens) (UniProt Q9H3N8); conditions: Compound concentration 10.0 uM
[34] = target: T1, Alpha-2B adrenergic receptor (Homo sapiens) (UniProt P18089); conditions: Compound concentration 10.0 uM
T1 sequence (whole entry): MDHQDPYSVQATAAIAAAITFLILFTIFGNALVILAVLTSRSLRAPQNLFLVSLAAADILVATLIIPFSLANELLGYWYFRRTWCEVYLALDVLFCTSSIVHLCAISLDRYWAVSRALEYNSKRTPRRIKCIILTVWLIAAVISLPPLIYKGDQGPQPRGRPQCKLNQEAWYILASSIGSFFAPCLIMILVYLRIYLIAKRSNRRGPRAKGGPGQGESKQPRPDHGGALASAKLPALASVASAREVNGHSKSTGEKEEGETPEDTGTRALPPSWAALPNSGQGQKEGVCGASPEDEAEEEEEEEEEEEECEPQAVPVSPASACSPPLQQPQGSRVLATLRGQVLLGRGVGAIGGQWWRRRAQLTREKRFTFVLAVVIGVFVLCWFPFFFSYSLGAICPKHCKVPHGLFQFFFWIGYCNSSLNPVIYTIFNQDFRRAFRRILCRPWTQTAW

Sequence of Ribosomal protein S6 kinase alpha-5 (Homo sapiens) (O75582 whole entry, looked up): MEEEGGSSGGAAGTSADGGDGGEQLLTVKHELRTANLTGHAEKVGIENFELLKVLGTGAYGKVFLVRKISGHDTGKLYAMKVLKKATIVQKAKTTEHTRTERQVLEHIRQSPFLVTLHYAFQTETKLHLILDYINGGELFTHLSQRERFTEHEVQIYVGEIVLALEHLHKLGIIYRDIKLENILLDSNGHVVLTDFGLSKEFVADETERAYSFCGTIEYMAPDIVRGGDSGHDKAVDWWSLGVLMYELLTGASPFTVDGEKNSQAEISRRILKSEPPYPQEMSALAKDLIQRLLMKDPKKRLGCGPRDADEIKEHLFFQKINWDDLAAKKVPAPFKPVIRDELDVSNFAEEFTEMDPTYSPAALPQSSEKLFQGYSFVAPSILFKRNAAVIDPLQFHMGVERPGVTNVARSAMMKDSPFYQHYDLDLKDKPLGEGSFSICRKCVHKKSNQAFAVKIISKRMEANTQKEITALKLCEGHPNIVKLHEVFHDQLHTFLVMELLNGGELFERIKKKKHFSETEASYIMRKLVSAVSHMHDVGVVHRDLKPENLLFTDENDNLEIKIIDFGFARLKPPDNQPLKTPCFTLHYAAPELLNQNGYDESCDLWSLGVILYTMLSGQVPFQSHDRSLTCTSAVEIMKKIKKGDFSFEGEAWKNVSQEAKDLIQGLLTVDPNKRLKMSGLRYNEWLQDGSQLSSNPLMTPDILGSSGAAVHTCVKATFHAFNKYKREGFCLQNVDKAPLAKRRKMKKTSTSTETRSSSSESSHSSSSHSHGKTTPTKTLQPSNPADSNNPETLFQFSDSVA
Sequence of Fibroblast growth factor receptor 3 (Homo sapiens), P22607 [G697C] (P22607 whole entry G697C): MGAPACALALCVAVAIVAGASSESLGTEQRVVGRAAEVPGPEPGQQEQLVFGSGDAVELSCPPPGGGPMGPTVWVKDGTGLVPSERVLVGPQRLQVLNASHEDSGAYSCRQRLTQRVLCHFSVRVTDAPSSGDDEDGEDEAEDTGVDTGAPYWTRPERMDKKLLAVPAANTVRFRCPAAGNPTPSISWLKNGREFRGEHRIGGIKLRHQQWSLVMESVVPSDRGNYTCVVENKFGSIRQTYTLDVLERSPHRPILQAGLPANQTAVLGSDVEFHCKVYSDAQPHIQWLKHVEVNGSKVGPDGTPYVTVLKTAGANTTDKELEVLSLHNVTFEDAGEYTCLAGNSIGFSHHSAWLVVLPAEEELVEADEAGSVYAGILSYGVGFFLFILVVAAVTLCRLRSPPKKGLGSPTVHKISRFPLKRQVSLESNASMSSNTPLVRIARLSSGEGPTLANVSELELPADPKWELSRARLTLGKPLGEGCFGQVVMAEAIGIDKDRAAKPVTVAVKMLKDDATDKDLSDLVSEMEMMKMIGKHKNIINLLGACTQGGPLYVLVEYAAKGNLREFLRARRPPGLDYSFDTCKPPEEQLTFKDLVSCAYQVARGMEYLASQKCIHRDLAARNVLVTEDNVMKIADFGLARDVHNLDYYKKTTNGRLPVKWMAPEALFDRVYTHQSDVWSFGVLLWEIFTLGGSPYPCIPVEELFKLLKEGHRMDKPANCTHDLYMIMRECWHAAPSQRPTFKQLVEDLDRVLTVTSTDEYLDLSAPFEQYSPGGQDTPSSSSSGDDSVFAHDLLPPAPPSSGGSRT
Sequence of Mitogen-activated protein kinase 14 (Homo sapiens) (Q16539 whole entry): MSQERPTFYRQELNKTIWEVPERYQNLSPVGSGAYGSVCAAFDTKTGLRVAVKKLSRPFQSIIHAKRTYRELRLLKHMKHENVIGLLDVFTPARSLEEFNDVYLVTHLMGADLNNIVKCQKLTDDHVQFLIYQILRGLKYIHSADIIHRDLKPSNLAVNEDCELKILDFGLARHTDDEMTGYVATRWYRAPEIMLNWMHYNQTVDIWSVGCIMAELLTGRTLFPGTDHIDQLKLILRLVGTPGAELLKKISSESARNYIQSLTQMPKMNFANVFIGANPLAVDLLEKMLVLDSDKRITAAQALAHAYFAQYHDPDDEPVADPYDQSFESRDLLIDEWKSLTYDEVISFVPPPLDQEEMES
Sequence of Phosphatidylinositol 4-phosphate 5-kinase type-1 gamma (Homo sapiens) (O60331 whole entry): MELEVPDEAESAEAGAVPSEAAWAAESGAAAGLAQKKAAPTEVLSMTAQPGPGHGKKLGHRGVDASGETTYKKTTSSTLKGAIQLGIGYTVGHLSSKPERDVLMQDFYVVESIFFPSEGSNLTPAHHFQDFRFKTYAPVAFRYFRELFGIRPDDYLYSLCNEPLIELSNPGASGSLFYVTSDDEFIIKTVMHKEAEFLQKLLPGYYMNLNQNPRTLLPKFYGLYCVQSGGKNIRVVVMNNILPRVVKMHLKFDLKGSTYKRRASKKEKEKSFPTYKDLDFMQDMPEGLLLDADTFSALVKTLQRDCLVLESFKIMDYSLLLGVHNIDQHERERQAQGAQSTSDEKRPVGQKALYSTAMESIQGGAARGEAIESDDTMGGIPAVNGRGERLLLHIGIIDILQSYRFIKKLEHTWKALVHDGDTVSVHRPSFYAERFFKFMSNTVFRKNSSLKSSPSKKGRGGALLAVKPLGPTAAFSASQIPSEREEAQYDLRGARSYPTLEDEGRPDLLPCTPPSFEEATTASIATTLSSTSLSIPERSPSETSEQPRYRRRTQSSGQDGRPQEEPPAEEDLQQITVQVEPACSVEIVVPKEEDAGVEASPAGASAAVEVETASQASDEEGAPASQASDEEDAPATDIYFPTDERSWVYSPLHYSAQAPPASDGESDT
Sequence of RAC-beta serine/threonine-protein kinase (Homo sapiens) (P31751 whole entry): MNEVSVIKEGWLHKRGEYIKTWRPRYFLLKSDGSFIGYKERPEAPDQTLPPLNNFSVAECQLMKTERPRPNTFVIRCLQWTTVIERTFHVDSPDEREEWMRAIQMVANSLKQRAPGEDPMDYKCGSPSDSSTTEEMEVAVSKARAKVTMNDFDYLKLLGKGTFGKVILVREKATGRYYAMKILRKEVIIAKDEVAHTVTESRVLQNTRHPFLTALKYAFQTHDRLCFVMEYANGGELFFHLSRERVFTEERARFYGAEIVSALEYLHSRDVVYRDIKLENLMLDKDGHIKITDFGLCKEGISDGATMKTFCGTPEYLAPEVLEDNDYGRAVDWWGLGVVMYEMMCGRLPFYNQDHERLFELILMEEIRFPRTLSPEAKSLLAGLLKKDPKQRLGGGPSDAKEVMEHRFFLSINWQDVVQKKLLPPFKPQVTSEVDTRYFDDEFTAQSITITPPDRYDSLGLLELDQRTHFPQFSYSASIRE
Sequence of Serine/threonine-protein kinase DCLK1 (Homo sapiens) (O15075 whole entry): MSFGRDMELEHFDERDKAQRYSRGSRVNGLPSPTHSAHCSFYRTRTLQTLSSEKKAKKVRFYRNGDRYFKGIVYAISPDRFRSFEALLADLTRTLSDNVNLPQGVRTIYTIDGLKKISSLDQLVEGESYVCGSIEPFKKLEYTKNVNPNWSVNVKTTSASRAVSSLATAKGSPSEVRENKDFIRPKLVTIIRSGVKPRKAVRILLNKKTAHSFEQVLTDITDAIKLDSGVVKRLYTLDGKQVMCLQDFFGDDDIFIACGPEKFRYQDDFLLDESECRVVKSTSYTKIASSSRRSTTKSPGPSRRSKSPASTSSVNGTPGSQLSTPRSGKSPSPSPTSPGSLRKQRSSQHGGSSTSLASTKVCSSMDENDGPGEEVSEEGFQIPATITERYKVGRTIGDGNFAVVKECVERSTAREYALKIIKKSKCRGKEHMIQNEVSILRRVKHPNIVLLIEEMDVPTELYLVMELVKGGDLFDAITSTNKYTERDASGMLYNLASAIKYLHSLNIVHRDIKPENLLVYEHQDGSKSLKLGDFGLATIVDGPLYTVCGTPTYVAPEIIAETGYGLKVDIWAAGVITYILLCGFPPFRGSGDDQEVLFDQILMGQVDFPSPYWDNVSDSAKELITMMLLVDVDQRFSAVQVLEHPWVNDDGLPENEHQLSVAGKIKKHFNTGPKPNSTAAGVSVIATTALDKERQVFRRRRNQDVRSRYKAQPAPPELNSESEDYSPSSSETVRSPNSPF
Sequence of Histamine H4 receptor (Homo sapiens) (Q9H3N8 whole entry): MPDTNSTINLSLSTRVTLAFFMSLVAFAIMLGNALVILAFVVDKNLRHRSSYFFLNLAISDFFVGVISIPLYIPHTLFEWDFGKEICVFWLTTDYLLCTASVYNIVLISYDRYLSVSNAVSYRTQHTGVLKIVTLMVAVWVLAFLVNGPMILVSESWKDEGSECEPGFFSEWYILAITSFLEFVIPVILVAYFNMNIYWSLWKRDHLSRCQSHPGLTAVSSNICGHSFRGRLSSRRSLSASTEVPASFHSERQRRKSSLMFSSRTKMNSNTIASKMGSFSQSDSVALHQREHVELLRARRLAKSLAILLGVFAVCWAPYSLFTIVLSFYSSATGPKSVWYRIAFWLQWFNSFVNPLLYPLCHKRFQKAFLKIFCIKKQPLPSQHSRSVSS
Sequence of Mitogen-activated protein kinase 4 (Homo sapiens) (P31152 whole entry): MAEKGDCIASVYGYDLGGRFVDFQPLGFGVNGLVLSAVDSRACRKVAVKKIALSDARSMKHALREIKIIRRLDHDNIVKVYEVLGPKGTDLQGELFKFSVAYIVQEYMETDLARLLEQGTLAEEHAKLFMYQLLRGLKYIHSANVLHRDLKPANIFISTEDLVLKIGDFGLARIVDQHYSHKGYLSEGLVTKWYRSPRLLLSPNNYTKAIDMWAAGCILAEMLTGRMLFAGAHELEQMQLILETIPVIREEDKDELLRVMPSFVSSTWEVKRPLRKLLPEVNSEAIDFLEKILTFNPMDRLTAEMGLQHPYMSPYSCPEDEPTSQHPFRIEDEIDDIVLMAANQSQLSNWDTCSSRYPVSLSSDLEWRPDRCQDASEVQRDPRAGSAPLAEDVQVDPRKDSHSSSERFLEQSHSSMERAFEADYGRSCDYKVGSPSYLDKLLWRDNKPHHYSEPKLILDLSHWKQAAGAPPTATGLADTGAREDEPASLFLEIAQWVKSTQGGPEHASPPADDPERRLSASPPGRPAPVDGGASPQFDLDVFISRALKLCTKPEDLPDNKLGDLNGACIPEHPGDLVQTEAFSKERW

Structure (SMILES)	% Inhibition of Control Values (Mean n=2) [1] [%]	% Inhibition of Control Specific Binding (Mean n=2) [2] [%]	residual activity [3] [%]	residual activity [4] [%]	residual activity [5] [%]	residual activity [6] [%]	residual activity [7] [%]	residual activity [8] [%]	residual activity [9] [%]	residual activity [10] [%]	residual activity [11] [%]	residual activity [12] [%]	residual activity [13] [%]	residual activity [14] [%]	residual activity [15] [%]	residual activity [16] [%]	residual activity [17] [%]	residual activity [18] [%]	residual activity [19] [%]	residual activity [20] [%]	also measured
COc1ccc2c(c1)O[C@@H](c1ccc(OC)c(OC)c1)C[C@H]2NC(=O)C1(c2ccc3c(c2)OC(F)(F)O3)CC1 [A-1596586]	-94	41	96	100	96	82	80	100	97	99	95	90	75	88	100	83	100	99	75	83	residual activity [21]: 92%; residual activity [22]: 90%; residual activity [23]: 92%; residual activity [24]: 76%; residual activity [25]: 100%; residual activity [26]: 100%; residual activity [27]: 87%; residual activity [28]: 84%; residual activity [29]: 100%; residual activity [30]: 100%; residual activity [31]: 82%; inhibition [32]: 1.62%; inhibition [33]: -2.97%; inhibition [34]: 37.5%
COc1ccc2c(c1)O[C@H](c1ccc(OC)c(OC)c1)C[C@@H]2NC(=O)C1(c2ccc3c(c2)OC(F)(F)O3)CC1 [A-1596584]	-28.5	38	100	96	100	100	87	100	100	100	93	100	69	99	87	88	100	90	100	61	residual activity [21]: 100%; residual activity [22]: 100%; residual activity [23]: 100%; residual activity [24]: 94%; residual activity [25]: 91%; residual activity [26]: 100%; residual activity [27]: 100%; residual activity [28]: 100%; residual activity [29]: 98%; residual activity [30]: 97%; residual activity [31]: 84%; inhibition [32]: -0.83%; inhibition [33]: 6.21%; inhibition [34]: 19.6%
